# ChEMBL document CHEMBL3046300, “Design, synthesis, and biological evaluation of sulfonic acid ester and benzenesulfonamide derivatives as potential CETP inhibitors” (Med Chem Res, 2012)
# pIC50: −log10 of the molar value.
# Tests used:
# [1] = biological target: T1, Cholesteryl ester transfer protein (Oryctolagus cuniculus) (UniProt P22687); experiment: Inhibition of Oryctolagus cuniculus (rabbit) CETP-mediated cholesteryl ester transfer at 10 uM after 1 hr by fluorescence assay
# T1 sequence (whole entry): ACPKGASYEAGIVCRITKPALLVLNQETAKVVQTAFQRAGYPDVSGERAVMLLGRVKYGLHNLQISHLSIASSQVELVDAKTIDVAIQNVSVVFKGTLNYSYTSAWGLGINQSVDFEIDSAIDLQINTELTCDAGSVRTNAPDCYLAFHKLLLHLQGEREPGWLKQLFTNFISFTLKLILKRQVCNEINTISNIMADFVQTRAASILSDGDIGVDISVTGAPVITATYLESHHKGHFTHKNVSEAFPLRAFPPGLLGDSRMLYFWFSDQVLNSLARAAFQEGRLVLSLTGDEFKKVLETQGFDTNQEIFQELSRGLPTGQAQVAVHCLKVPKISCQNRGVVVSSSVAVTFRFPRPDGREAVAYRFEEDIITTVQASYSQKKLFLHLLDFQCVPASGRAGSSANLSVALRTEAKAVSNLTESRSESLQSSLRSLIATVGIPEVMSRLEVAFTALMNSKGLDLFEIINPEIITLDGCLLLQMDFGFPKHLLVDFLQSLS
# [2] = biological target: T2, Cholesteryl ester transfer protein (Oryctolagus cuniculus, UniProt P22687); experiment: Inhibition of Oryctolagus cuniculus (rabbit) CETP-mediated cholesteryl ester transfer after 1 hr by fluorescence assay
# T2 sequence (P22687 whole entry): T1 sequence (whole entry)
SMILES,inhibition [1],pIC50 [2]
Cc1ccc(S(=O)(=O)Nc2ccc(OCc3ccc([N+](=O)[O-])cc3)cc2)cc1,15.5%,
Cc1ccc(S(=O)(=O)Oc2ccc(N(Cc3cccc(C)c3)Cc3cccc(C)c3)cc2)cc1,29%,
Cc1ccc(S(=O)(=O)Nc2ccc(OCc3ccc(Br)cc3)cc2)cc1,10.2%,
Cc1ccc(S(=O)(=O)Nc2ccc(OCc3cccc(Cl)c3)cc2)cc1,29.6%,
Cc1ccc(S(=O)(=O)N(c2ccc(OCc3ccc(Cl)cc3)cc2)S(=O)(=O)c2ccc(C)cc2)cc1,37.5%,4.88
Cc1ccc(S(=O)(=O)Nc2ccc(OCc3ccc(Cl)cc3)cc2)cc1,23%,
Cc1ccc(S(=O)(=O)Oc2ccc(N(Cc3cccc(C(F)(F)F)c3)Cc3cccc(C(F)(F)F)c3)cc2)cc1,24.7%,
Cc1ccc(S(=O)(=O)Oc2ccc(NCc3cccc(Br)c3)cc2)cc1,16.1%,
Cc1ccc(S(=O)(=O)N(c2ccc(OCc3cccc(C)c3)cc2)S(=O)(=O)c2ccc(C)cc2)cc1,66.9%,5.47
COc1cccc(COc2ccc(NS(=O)(=O)c3ccc(C)cc3)cc2)c1,22.8%,

# More lines, now with the values ahead:
inhibition [1],pIC50 [2],SMILES
42.6%,4.98,Cc1ccc(S(=O)(=O)N(c2ccc(OCc3cccc(Cl)c3)cc2)S(=O)(=O)c2ccc(C)cc2)cc1
0%,,Cc1ccc(COc2ccc(NS(=O)(=O)c3ccc(C)cc3)cc2)cc1
22.3%,,Cc1ccc(CN(Cc2ccc(C)cc2)c2ccc(OS(=O)(=O)c3ccc(C)cc3)cc2)cc1
23.1%,,Cc1ccc(S(=O)(=O)Oc2ccc(N(Cc3cccc(Br)c3)Cc3cccc(Br)c3)cc2)cc1
39%,4.95,Cc1ccc(S(=O)(=O)N(c2ccc(OCc3cccc(C(F)(F)F)c3)cc2)S(=O)(=O)c2ccc(C)cc2)cc1
9.9%,,Cc1ccc(S(=O)(=O)Nc2ccc(OCc3ccc(C(F)(F)F)cc3)cc2)cc1
65.3%,5.41,COc1cccc(COc2ccc(N(S(=O)(=O)c3ccc(C)cc3)S(=O)(=O)c3ccc(C)cc3)cc2)c1
31.3%,4.52,Cc1ccc(S(=O)(=O)Oc2ccc(NCc3cccc(C)c3)cc2)cc1
31.4%,4.53,Cc1ccc(S(=O)(=O)Oc2ccc(N(Cc3cccc([N+](=O)[O-])c3)Cc3cccc([N+](=O)[O-])c3)cc2)cc1
24.9%,,Cc1ccc(S(=O)(=O)Oc2ccc(N(Cc3ccc(Cl)cc3)Cc3ccc(Cl)cc3)cc2)cc1
29.9%,,Cc1ccc(S(=O)(=O)Oc2ccc(NCc3cccc([N+](=O)[O-])c3)cc2)cc1
31.9%,4.55,Cc1ccc(S(=O)(=O)Oc2ccc(N(Cc3cccc(Cl)c3)Cc3cccc(Cl)c3)cc2)cc1
17.5%,,Cc1ccc(S(=O)(=O)Oc2ccc(N(Cc3ccc(Br)cc3)Cc3ccc(Br)cc3)cc2)cc1
9.3%,,Cc1ccc(S(=O)(=O)Oc2ccc(N(Cc3ccc([N+](=O)[O-])cc3)Cc3ccc([N+](=O)[O-])cc3)cc2)cc1
